Results on four molecules are retold here after ChEMBL document CHEMBL5518248, “Design, Synthesis, and Biological Evaluation of Novel Arylomycins against Multidrug-Resistant Gram-Negative Bacteria” (J Med Chem, 2024).

A word on the MIC: it is the least concentration at which growth counts as inhibited. One may read the IC50 as the concentration needed to halve the response being measured. By inhibition is commonly meant the change of the read-out against control, counted positive when it falls.

For series [1], the system named is Escherichia coli. The experiment in a line: Antibacterial activity against Escherichia coli ATCC 35218 assessed as inhibition of bacterial growth measured after 18 to 20 hrs by broth microdilution method. In kind it is functional. As to conditions: time 18-20 hrs. A general note: Broth dilution looks for growth in wells or tubes with falling amounts of substance.

Series [2] deals with Escherichia coli. The series is described as follows: Antibacterial activity against Escherichia coli 14-2 assessed as inhibition of bacterial growth measured after 18 to 20 hrs by broth microdilution method. In kind it is functional. As to conditions: time 18-20 hrs.
Series [3] has as its system Escherichia coli. The experiment in a line: Antibacterial activity against Escherichia coli 14-4 assessed as inhibition of bacterial growth measured after 18 to 20 hrs by broth microdilution method. As to conditions: time 18-20 hrs. In kind it is functional.
Series [4] relates to Klebsiella pneumoniae. The experiment in a line: Antibacterial activity against Klebsiella pneumoniae 15-1 assessed as inhibition of bacterial growth measured after 18 to 20 hrs by broth microdilution method. To be noted: time 18-20 hrs. Type of series: functional.
The test system of series [5] is Klebsiella pneumoniae. The experiment in a line: Antibacterial activity against Klebsiella pneumoniae 15-4 assessed as inhibition of bacterial growth measured after 18 to 20 hrs by broth microdilution method. Type of series: functional. As to conditions: time 18-20 hrs.
The subject of series [6] is Klebsiella pneumoniae. The series is described as follows: Antibacterial activity against Klebsiella pneumoniae 15-5 assessed as inhibition of bacterial growth measured after 18 to 20 hrs by broth microdilution method. Type of series: functional. As to conditions: time 18-20 hrs.
Series [7] deals with Acinetobacter baumannii. The series is described as follows: Antibacterial activity against Acinetobacter baumannii 17-2 assessed as inhibition of bacterial growth measured after 18 to 20 hrs by broth microdilution method. Type of series: functional. To be noted: time 18-20 hrs.
In series [8] the test system is Acinetobacter baumannii. The experiment in a line: Antibacterial activity against Acinetobacter baumannii 17-8 assessed as inhibition of bacterial growth measured after 18 to 20 hrs by broth microdilution method. Type of series: functional. To be noted: time 18-20 hrs.
For series [9], the system named is Pseudomonas aeruginosa. The series is described as follows: Antibacterial activity against Pseudomonas aeruginosa 17-1 assessed as inhibition of bacterial growth measured after 18 to 20 hrs by broth microdilution method. In kind it is functional. To be noted: time 18-20 hrs.
Series [10] has as its system Pseudomonas aeruginosa. The experiment in a line: Antibacterial activity against Pseudomonas aeruginosa 19-5 assessed as inhibition of bacterial growth measured after 18 to 20 hrs by broth microdilution method. In kind it is functional. To be noted: time 18-20 hrs.
The subject of series [11] is HepG2. The series is described as follows: Cytotoxicity against human HepG2 cells assessed as inhibition of cell growth incubated for 24 hrs by CCK8 method. Type of series: functional, cell-based. To be noted: HepG2, 24 h. For orientation: Tetrazolium assays rely on reduction of a dye to a coloured formazan, in cell work by metabolically active cells.
In series [12] the test system is HepG2. The experiment in a line: Cytotoxicity against human HepG2 cells assessed as inhibition of cell growth at 100 uM incubated for 24 hrs by CCK8 method relative to control. Type of series: functional.
Series [13] in a line: Cytotoxicity against HEK293T cells assessed as inhibition of cell growth incubated for 24 hrs by CCK8 method. In kind it is toxicity, cell-based, HEK-293T. To be noted: human.
Series [14] in a line: Cytotoxicity against HEK293T cells assessed as inhibition of cell growth at 100 uM incubated for 24 hrs by CCK8 method relative to control. Type of series: toxicity, cell-based, HEK-293T. To be noted: human.
The test system of series [15] is Jurkat. The experiment in a line: Cytotoxicity against human Jurkat cells assessed as inhibition of cell growth incubated for 24 hrs by CCK8 method. Type of series: functional, cell-based.
In series [16] the test system is Jurkat. The experiment in a line: Cytotoxicity against human Jurkat cells assessed as inhibition of cell growth at 100 uM incubated for 24 hrs by CCK8 method relative to control. Type of series: functional.

A value given as a limit tells only on which side of the number the result lay.

`CSSC(C)(C)c1ccc(-c2ncc(C(=O)N[C@@H](CCN)C(=O)N(C)[C@@H]3C(=O)N[C@@H](C)C(=O)N[C@H](C(=O)NCC#N)Cc4ccc(OCCN)c(c4)-c4cc3ccc4OCCN)c(C)n2)cc1.O=C(O)C(F)(F)F.O=C(O)C(F)(F)F.O=C(O)C(F)(F)F.O=C(O)C(F)(F)F`: the MIC in the series on Escherichia coli [1], in the series on Escherichia coli [2], with Escherichia coli [3], in the series on Klebsiella pneumoniae [4], with Klebsiella pneumoniae [5] and in the series on Klebsiella pneumoniae [6] was at most 0.03 µg/mL each time. Besides, the MIC in the series on Acinetobacter baumannii [7] is 1 µg/mL; with Acinetobacter baumannii [8], 0.25 µg/mL; in the series with Pseudomonas aeruginosa [9], 8 µg/mL; in the series on Pseudomonas aeruginosa [10], 8 µg/mL. Moreover, the IC50 in the series with HepG2 [11] and with Jurkat [15] was above 100 µM in each case. Also, the values for the inhibition at 100 µM in the series on HepG2 [12] and in the series on Jurkat [16] were -12.6% and 39.1%, respectively. Also, the IC50 at 24 h in [13] is above 100 µM. In addition, the inhibition at 24 h, 100 µM in series [14] amounted to 48.1%.

With `Cc1nc(-c2ccc(CSSCC(C)C)cc2)ncc1C(=O)N[C@@H](CCN)C(=O)N(C)[C@@H]1C(=O)N[C@@H](C)C(=O)N[C@H](C(=O)NCC#N)Cc2ccc(OCCN)c(c2)-c2cc1ccc2OCCN.O=C(O)C(F)(F)F.O=C(O)C(F)(F)F.O=C(O)C(F)(F)F.O=C(O)C(F)(F)F`, the MIC in the series with Escherichia coli [1] was at most 0.03 µg/mL; with Escherichia coli [2] it was at most 0.03 µg/mL; in the series on Escherichia coli [3], at most 0.03 µg/mL; in the series with Klebsiella pneumoniae [4], at most 0.03 µg/mL; in the series with Klebsiella pneumoniae [5], 0.06 µg/mL; in the series with Klebsiella pneumoniae [6], 0.06 µg/mL. In addition, the MIC with Acinetobacter baumannii [7] came out at 0.5 µg/mL; in the series with Acinetobacter baumannii [8], 0.125 µg/mL; in the series on Pseudomonas aeruginosa [9] it was 4 µg/mL; with Pseudomonas aeruginosa [10], 4 µg/mL. The IC50 with HepG2 [11] and in the series on Jurkat [15] was above 100 µM throughout. For the same molecule, the inhibition at 100 µM with HepG2 [12] is -4.7%; in the series with Jurkat [16] it was 18.4%. Further, in series [13], the concentration for half-maximal inhibition (IC50) at 24 h is above 100 µM. Moreover, in series [14], the inhibition at 24 h, 100 µM was 42.7%.

As for `CCCSSc1ccc(-c2ncc(C(=O)N[C@@H](CCN)C(=O)N(C)[C@@H]3C(=O)N[C@@H](C)C(=O)N[C@H](C(=O)NCC#N)Cc4ccc(OCCN)c(c4)-c4cc3ccc4OCCN)c(C)n2)cc1.O=C(O)C(F)(F)F.O=C(O)C(F)(F)F.O=C(O)C(F)(F)F.O=C(O)C(F)(F)F`, the MIC is at most 0.03 µg/mL in the series on Escherichia coli [1]; at most 0.03 µg/mL with Escherichia coli [2]; at most 0.03 µg/mL in the series with Escherichia coli [3]; at most 0.03 µg/mL with Klebsiella pneumoniae [4]; 0.125 µg/mL in the series with Klebsiella pneumoniae [5]; 0.06 µg/mL with Klebsiella pneumoniae [6]. Besides, the MIC in the series on Acinetobacter baumannii [7] is 1 µg/mL; in the series on Acinetobacter baumannii [8] it was 0.5 µg/mL; with Pseudomonas aeruginosa [9], 4 µg/mL; in the series on Pseudomonas aeruginosa [10], 4 µg/mL. The IC50 in the series on HepG2 [11] and in the series on Jurkat [15] was above 100 µM throughout. The figures for the inhibition at 100 µM in the series on HepG2 [12] and with Jurkat [16] were -6.72% and 42.4%, respectively. Also, the IC50 at 24 h in series [13] was above 100 µM. Moreover, in series [14], the inhibition at 24 h, 100 µM stood at 30.6%.

Take `Cc1nc(-c2ccc(CSSC(C)(C)C)cc2)ncc1C(=O)N[C@@H](CCN)C(=O)N(C)[C@@H]1C(=O)N[C@@H](C)C(=O)N[C@H](C(=O)NCC#N)Cc2ccc(OCCN)c(c2)-c2cc1ccc2OCCN.O=C(O)C(F)(F)F.O=C(O)C(F)(F)F.O=C(O)C(F)(F)F.O=C(O)C(F)(F)F`: the minimum inhibitory concentration (MIC) in the series with Escherichia coli [1], with Escherichia coli [2], in the series with Escherichia coli [3], in the series with Klebsiella pneumoniae [4], in the series with Klebsiella pneumoniae [5] and in the series with Klebsiella pneumoniae [6] was at most 0.03 µg/mL each time. The minimal inhibitory concentration (MIC) in the series on Acinetobacter baumannii [7] was found to be 0.125 µg/mL; with Acinetobacter baumannii [8], 0.125 µg/mL; in the series on Pseudomonas aeruginosa [9], 4 µg/mL; with Pseudomonas aeruginosa [10] it was 4 µg/mL. The IC50 in the series on HepG2 [11] and with Jurkat [15] was above 100 µM throughout. Further, the figures for the inhibition at 100 µM in the series with HepG2 [12] and in the series on Jurkat [16] were 28.4% and 34.6%, respectively. Moreover, in series [13], the IC50 at 24 h is above 100 µM. The inhibition at 24 h, 100 µM in series [14] worked out at 43%.
